This experiment concerns SKOV3 ovarian cells. The experiment is described as follows: Cytotoxicity of ADCs against SKOV3 cell lines (viable cells by ATP content, CellTiter-Glo). The following applies: SKOV3 ovarian cancer cells, 3 to 5 days incubation with ADC, % survival curve fit. The experiment is classed as cell-based. Background: ATP-based viability assays read luminescence as a measure of living cells.

Method: The cytotoxic activity of Trastuzumab ADCs of Formula (IV) was tested against SKOV3 ovarian cell lines
SKOV3 ovarian cells were incubated with the effectors for a period corresponding to 2 to 3 times their estimated doubling time and the amount of viable cells was determine by measuring ATP content in the wells. […] All ADCs were diluted in DPBS to 6× the highest concentration tested, followed by 10 3-fold serial dilutions in DPBS for a total of 11 concentration points. Each point was added to triplicate wells. DPBS was added in wells to measure the maximum growth. Cells were diluted at their appropriate seeding density (ranging from 150 to 1000 cells per well) in complete media supplemented with glutamine 2 mM, serum and antibiotic cocktail. […] Total ATP was measured using CellTiter-Glo™ reagent from Promega as recommended by the supplier. […] Signal output was measured on a luminescence plate reader (Envision™, Perkin Elmer) set at an integration time of 0.1 sec. […]
Each concentration point (S) was normalized to the negative control wells (NC) and expressed as % survival (NC-S/NC×100). Potency (IC50) and efficacy were calculated from a non-linear curve fit of the points versus log of the concentrations without constrain on the slope. Refined data were analysed using Prism™ software.

As to Synagis-SMCC-DM1: negative control ADC, the midpoint of inhibition, the IC50, lay at 4.01 nM.

For the origin of these results see patent US20220267281A1, “UNSATURATED HETEROCYCLOALKYL AND HETEROAROMATIC ACYL HYDRAZONE LINKERS, METHODS AND USES THEREOF” (priority 2019, published 2022).
